The test system of one series is GVHD in recipient mice. The series can be described thus: murine model of MHC-disparate allogeneic hematopoietic cell transplantation (GVHD). The series is classed as in vivo. As to conditions: 100 mg/kg twice a day by oral gavage for 4 weeks beginning on the day of MHC-disparate allo-HCT.
For another series, the target named is T1, JAK3 (Homo sapiens, UniProt P52333).
T1 sequence (P52333 1-1124): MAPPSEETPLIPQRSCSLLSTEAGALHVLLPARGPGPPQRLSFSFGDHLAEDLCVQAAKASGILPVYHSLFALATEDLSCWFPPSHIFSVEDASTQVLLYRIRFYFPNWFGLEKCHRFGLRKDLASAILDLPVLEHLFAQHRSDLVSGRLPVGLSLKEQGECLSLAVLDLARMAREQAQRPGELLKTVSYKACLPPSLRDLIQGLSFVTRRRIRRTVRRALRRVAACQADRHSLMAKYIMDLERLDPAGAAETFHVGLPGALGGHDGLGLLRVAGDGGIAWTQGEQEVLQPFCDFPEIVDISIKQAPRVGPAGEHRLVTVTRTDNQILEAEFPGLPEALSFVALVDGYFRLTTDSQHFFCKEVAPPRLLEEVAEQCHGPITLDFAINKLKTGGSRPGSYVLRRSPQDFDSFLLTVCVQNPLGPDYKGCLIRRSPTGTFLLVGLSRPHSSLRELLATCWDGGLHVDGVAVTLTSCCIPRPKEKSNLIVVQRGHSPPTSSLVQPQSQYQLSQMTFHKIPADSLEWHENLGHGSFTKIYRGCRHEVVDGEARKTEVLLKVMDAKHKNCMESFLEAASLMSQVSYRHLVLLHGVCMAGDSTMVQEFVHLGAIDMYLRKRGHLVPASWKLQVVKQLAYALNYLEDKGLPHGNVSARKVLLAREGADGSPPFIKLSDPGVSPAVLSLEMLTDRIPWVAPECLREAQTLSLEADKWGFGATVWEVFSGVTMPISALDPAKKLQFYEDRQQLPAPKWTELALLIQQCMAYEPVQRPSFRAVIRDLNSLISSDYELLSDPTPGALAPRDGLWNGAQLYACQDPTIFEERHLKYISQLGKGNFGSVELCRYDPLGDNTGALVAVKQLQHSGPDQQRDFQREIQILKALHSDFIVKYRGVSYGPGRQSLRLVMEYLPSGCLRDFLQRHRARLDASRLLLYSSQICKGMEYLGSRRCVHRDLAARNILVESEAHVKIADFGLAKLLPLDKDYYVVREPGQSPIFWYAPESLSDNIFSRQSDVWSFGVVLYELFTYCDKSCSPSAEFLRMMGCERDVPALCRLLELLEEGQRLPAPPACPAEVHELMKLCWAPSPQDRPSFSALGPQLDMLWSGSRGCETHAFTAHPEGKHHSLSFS
The conditions noted are these: cited from earlier work.

In another series the test system is myelofibrosis patients. The conditions noted are these: unlike JAK1/JAK2 inhibitors; cited from earlier work.
The target of another series is CSF1R (Homo sapiens, UniProt P07333). As to conditions: cited from earlier work.
The next series concerns iTregs. The series can be described thus: suppressive potency of iTregs generated with allogeneic DCs in the presence of drug. As to conditions: iTregs generated with allogeneic DCs for 5 days with drug, then cultured with self T-cell responders and fresh DCs without drug. The series is classed as cell-based, human. The text has this:
(§1) This offers a platform to reduce Th17 development, while promoting Treg populations.

Another series deals with IRAK1 (Homo sapiens, UniProt P51617). The conditions noted are these: cited from earlier work.
In a further series the test system is STAT3 activity by IL-6. The series can be described thus: STAT3 activity by IL-6 in human CD4+ T-cells. The conditions noted are these: 2.5 μM. The series is classed as cell-based.
Text: as §1

The test system of the next series is human T-cells. The experiment in a line: allogeneic mixed leukocyte reaction, T-cell proliferation. The series is classed as cell-based. The conditions noted are these: 2.5 μM, after 5 days of culture, DC:T-cell ratio 1:30; control 100%; P<0.0001.
Text: as §1

Series [1] concerns IL-2 induced STATS phosphorylation. The experiment in a line: IL-2 induced STAT5 phosphorylation in human CD4+ T-cells. The series is classed as cell-based. As to conditions: 2.5 μM.
Text: as §1

Series [2] has as its system human skin graft rejection by allogeneic human PBMC. The experiment in a line: human skin/NSG mouse xenograft model of solid organ graft rejection. The series is classed as in vivo. The text has this:
The inventors then evaluated whether JAK2 inhibition could prevent solid organ graft rejection, using a human skin/NSG mouse xenograft model. A 1×1 cm split-thickness human skin graft was transplanted onto the animal dorsally, followed by intraperitoneal injection of 5×10^6 allogeneic peripheral blood mononuclear cells (PBMC) 30 days after surgery.

These results are taken from patent publication US20210069199A1, “METHODS OF TREATING TRANSPLANT REJECTION” (priority 2015, published 2021).

CSF1R, sequence (P07333 20-972, species assumed): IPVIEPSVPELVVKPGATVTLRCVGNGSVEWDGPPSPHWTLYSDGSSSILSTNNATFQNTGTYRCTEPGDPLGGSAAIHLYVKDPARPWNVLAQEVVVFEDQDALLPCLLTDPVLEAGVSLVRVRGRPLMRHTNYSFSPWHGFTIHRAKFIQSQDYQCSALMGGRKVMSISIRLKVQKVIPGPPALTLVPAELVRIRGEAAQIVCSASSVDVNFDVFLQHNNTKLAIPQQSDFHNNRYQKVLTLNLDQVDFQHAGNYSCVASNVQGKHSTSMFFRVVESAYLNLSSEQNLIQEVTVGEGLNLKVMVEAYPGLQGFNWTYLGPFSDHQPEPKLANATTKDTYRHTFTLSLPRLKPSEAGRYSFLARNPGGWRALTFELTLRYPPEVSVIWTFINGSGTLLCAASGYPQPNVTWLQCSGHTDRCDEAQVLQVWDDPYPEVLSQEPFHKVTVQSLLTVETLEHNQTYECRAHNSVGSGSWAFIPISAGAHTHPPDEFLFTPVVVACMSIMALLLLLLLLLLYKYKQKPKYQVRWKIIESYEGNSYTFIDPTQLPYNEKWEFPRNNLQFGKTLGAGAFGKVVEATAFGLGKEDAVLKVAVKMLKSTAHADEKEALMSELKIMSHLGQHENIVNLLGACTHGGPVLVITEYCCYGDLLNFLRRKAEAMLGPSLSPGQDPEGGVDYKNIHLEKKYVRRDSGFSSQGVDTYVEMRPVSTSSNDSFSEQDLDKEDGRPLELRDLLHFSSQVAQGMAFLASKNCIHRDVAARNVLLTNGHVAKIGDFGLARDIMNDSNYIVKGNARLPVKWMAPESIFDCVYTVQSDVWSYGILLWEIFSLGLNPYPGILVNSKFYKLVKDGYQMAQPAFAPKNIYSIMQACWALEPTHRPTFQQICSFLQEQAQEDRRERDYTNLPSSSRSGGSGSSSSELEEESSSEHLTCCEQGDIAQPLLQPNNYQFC
IRAK1, sequence (P51617 whole entry, species assumed): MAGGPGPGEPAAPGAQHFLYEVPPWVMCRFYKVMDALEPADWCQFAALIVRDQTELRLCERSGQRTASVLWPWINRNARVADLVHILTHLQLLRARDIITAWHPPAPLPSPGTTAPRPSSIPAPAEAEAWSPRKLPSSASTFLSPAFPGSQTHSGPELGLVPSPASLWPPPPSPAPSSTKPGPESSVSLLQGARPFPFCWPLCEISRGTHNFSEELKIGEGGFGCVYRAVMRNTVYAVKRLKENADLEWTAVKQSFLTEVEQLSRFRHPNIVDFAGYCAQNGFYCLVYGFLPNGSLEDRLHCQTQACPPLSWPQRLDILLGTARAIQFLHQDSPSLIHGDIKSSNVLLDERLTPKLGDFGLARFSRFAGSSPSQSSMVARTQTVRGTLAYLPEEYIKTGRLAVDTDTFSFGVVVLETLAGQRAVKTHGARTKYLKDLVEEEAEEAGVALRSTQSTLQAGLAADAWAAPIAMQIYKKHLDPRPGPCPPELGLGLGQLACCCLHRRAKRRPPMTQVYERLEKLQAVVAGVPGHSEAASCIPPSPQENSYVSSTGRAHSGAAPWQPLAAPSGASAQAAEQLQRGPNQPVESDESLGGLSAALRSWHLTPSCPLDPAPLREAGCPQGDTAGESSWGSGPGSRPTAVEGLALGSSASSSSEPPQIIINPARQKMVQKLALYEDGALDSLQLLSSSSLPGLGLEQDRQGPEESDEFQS

In the case of `C1=C/COCc2cc(ccc2OCCN2CCCC2)Nc2nccc(n2)-c2cccc(c2)COC/1` [pacritinib, 11-(2-Pyrrolidinl-yl-ethoxy)-14,19-dioxa-5,7,26-triazatetracyclo[19.3.1.1^2,6.1^8,12] heptacosa-1(25),2(26),3,5,8,10,12(27),16,21,23-decaene], the “GVHD in recipient mice” value with GVHD in recipient mice is reported as “significantly reducing GVHD”. The “suppressive activity toward JAK3” value on JAK3 is reported as “has suppressive activity toward JAK3”. Moreover, in the series on myelofibrosis patients, the myelosuppression entry was “does not induce myelosuppression” and the “risk for opportunistic infections” value is on record as “does not induce myelosuppression or increase risk for opportunistic infections”. For the same molecule, the “suppressive activity toward CSF1R” value on CSF1R is on record as “has suppressive activity toward JAK3, CSF1R”. In the series with iTregs, the “suppressive potency of treated iTregs versus DMSO-treated iTregs” value is reported as “similar”. In addition, the “suppressive activity toward IRAK1” value at IRAK1 was “has suppressive activity toward JAK3, CSF1R, and IRAK1”. Besides, the “STAT3 activity by IL-6” value in the series on STAT3 activity by IL-6 is “eliminated STAT3 activity by IL-6”. For the same molecule, the “Mean proliferation (T-cell)” value in the series with human T-cells was determined as 23.7%. For the same molecule, the “IL-2 induced STATS phosphorylation” value in series [1] was “permitting IL-2 induced STATS phosphorylation”. The “Day 60 survival (graft)” value in series [2] (100 mg/kg twice a day oral gavage for 15 days from PBMC injection, vehicle 0%) is reported as 33.3%. The same molecule came in with a Median graft survival in [2] (100 mg/kg twice a day oral gavage for 15 days from PBMC injection, vehicle 32.5 days, P=0.0011) of 51 days. Further, the “lymphocytic infiltration of skin graft (H&E, CD3 IHC)” value in [2] (skin grafts at day +21, before onset of graft rejection) was “reduces lymphocytic infiltration of the tissue”.
